Converted amounts (≈) assume the structure as drawn.

This assay deals with Mucor hiemalis. Kind of assay: MIC serial dilution assay. Type of assay: cell-based. To be noted: Mucor hiemalis DSM2656; overnight, 30 °C; reference nystatin 1 mg/mL; read-out: Minimum Inhibitory Concentration (MIC). As to the method: Compounds 1, 2, 4 and 5 were dissolved in MeOH (1 mg/mL) for the antimicrobial activity assay, while compound 3 was dissolved in MeOH: DMSO 9+1 (1 mg/mL). The solvents were also used as negative controls.
Minimum inhibitory concentrations (MIC) were determined in a serial dilution assay, as described previously; a detailed protocol can be found in the Supporting Information. The compounds (1 mg/mL) were diluted to a range of 66.7 to 0.52 µg/mL and incubated with the test organisms overnight. Inhibition of growth was visually evaluated the next day: the MIC is defined as the lowest concentration of the test compound where no growth of the test organism was observed. Various test organisms of fungal and bacterial origin were tested to cover a broad range of microorganisms. This selection is also being used as a standard test panel in our attempts to discover new anti-infectives, as it represents a broad spectrum of pathogens of clinical interest, as well as sensitive indicator strains (bacteria: Bacillus subtilis, Staphylococcus aureus, Micrococcus luteus, Chromobacterium violaceum, Escherichia coli and Pseudomonas aeruginosa; mycobacteria: Mycolicibacterium smegmatis and fungi: Candida albicans, Schizosaccharomyces pombe, Mucor hiemalis, Pichia anomala and Rhodotorula glutinis).
Protocol: Antimicrobial Activi ty Assay
The assay was conducted as a minimum inhi bitory concentration (MIC) assay in 96-well ro und-bottom mi crotiter pl ate s usi ng the p ar ameter s su mm ari zed i n T a bl e S 1 and as already described i n [S1].
Stocks of the test organi sms were generated by growing the organisms o ver ni ght i n 50 mL shaki ng fl asks fi ll ed wi th 25 mL of the growth medi um at 140 rpm (for media and temperatures see Table S1). If the organisms were well grown the ne xt day, which was checked by occurrence of an optical density (OD)>30 of the suspension (OD600 nm for bacteria, OD548 nm for fungi and M. smegma tis) , aliquots of these were stored i n 1.5 mL reaction tube s in a freezer at −80 °C for up to 12 mo nths . Upon use, aliquots were unth awed and the OD of the suspension measured and adjusted by diluting with the respective growth medi um. OD600 nm w as adj usted to 0.01 and OD548 nm to 0.1.
Subse que ntly, 150 µL o f the adjusted suspensions were added to all wells of a 96-wel l microtiter pl ate (one test organi sm per plate). In row A, additional 130 µL of suspensions plus 20 µL of the test compounds (1 mg/mL) and the controls (one compound/column) were added. MeOH as well as MeOH:DMSO 9+1 were used as negative controls, while different positive controls (refer ences) were used for the test organisms (see Tabl e S1). Then, starti ng from row A, 150 µ L of the suspension were transferred to the next row, the contents thoroughly mixed, and 150 µ L transferred to the following row.
The remaining 150 µ L after row H were discarded. […]
compounds, ranging from 66.7 µg/mL i n row A to 0.52 µg/mL i n row H.
The microtiter plates were then incubated overnight o n a microplate shaker at 800 rpm at 30 or 37 °C (see Table S1) and were visually evaluated the next day. The MIC is defined as the lowest concentration were no growth of the test organism was o bserved. A lower MIC thus corresponds to a higher antimicrobial activity of the test compound.
Table S1: MIC assay ex per i men t parameters test organism strain No. growth incubation positive control (reference) […]
Mucor hiemalis DSM2656 MYC 3 30 nyst ati n 1.0 mg/mL […]
Rhodotorula glutinis DSM10134 MYC 3 30 nyst ati n 1.0 mg/mL
1 MHB: Müller-Hinton Broth (SN X927.1, Ca r l Roth GmbH, Karlsruhe, Germany) 2 7H9+ADC: Middlebrook 7H9 Broth Base + Middlebrook ADC Growth Supplement (SN M0678+M0553, Merck, Darmstadt, Germany)
3 MYC: 1 % w/v, bacto peptone, 1% w/v yeast extract, 2 % w /v glycerol, pH 6.3 [S1] Helaly, S.E.; Ashrafi, S.; Teponno, R.B.; Bernecker, S.; Dababat, A.A.; Maier, W.; Stadler, M.
Nematicidal Cyclic Lipodepsipeptides and a Xanthocillin Derivative from a Phaeosphariaceous […]
Take `O=C1C[C@H]2C(=C3CCC(=O)c4c(O)ccc2c43)c2cccc(O)c21` [Compound 4, truncatone A]: the MIC was over 66.7 µg/mL.
`O=C1CCC(=O)c2c1c(O)cc1c2-c2ccc(O)c3c(O)ccc-1c23` [Compound 5, truncatone C]: the MIC was determined as 66.7 µg/mL (≈ 201 µM).
The result for `Oc1cccc2c3c(ccc12)-c1ccc(O)c2c(O)ccc-3c12` [Compound 1, viridistratin A] reads 66.7 µg/mL (≈ 222 µM).
As for `COc1cccc2c3c(ccc12)-c1ccc(O)c2c(OC)ccc-3c12` [Compound 3, viridistratin C], the MIC is over 66.7 µg/mL.
The result for `COc1cccc2c3c(ccc12)-c1ccc(O)c2c(O)ccc-3c12` [Compound 2, viridistratin B] reads 4.2 µg/mL (≈ 13.4 µM).

For the origin of these results see publication PMC7277860, “Viridistratins A−C, Antimicrobial and Cytotoxic Benzo[j]fluoranthenes from Stromata of Annulohypoxylon viridistratum (Hypoxylaceae, Ascomycota)” (Biomolecules, 2020).
